One assay deals with Maize (Zea mays). Put plainly: Soil incorporation (attaclay/sand dust), growth regulatory or herbicidal effects, maize. It is filed as in vivo. The note with it: 504 h, soil incorporation 26 ppm, 21 days, 0=no effect, 100=complete kill, read-out: growth regulatory or herbicidal effect score. The procedure, abridged: (§1)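 Dust-formulated compound incorporated in potting compost, 26 or 130 ppm w/v; seeds sown, watered, 21 d at 22° C, 65-85% RH, 14 h/day 13,000 lux. Visual growth-regulatory/herbicidal score 0 (no effect) to 100 (complete kill) vs untreated.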

Assay [1] relates to Ryegrass (Lolium perenne). Kind of assay: Soil incorporation (attaclay/sand dust), growth regulatory or herbicidal effects, ryegrass. It counts as in vivo. The note with it: 504 h, soil incorporation 26 ppm, 21 days, 0=no effect, 100=complete kill, read-out: growth regulatory or herbicidal effect score. In outline: as §1
For another assay, the system named is Peas (Pisum sativum). Kind of assay: Post-emergence foliar spray, herbicidal/growth regulant response, peas. It is filed as in vivo. As to conditions: Lathyrus oleraceus, 168 h, foliar spray 11.2 kg/ha, 7 days, 0=no effect, 100=complete kill, read-out: herbicidal or growth regulant response index. The procedure, abridged:
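Foliar spray, 14-day-old seedlings; 11.2 kg/ha in 450 L/ha, 1:1 aq. acetone. Controlled room 22° C., 65-85% RH, 14 h light (13,000 lux). Visual score vs untreated control at 7 d, 0–100 (100 = complete kill).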

Another assay relates to Pythium ultimum. Kind of assay: Cabbage seedling emergence in soil infected with Pythium ultimum. It is filed as in vivo, Pythium ultimum (on cabbage, variety Flower of Spring). As to conditions: 6 days, 25° C., 0-8 scale. The procedure, abridged:
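Potting compost infested with one-week maize meal/sand Pythium ultimum culture (3 kg per 12 l soil), drenched with compound in Tween 20/water at 1500, 500, 150 or 50 ppm; 15 cabbage seeds sown per carton, 25° C, four replicates. After six days, soil-surface fungal growth and seedling emergence scored 0-8.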

Structures are written as SMILES.

For `CCCS(=O)(=O)N(c1c(C)cccc1C)C(C)C(=O)OCC` (centres unmarked) [Example 24, N-(1-[ethoxycarbonyl]ethyl)-2',6'-dimethyl-1-propanesulphonanilide], the plant injury at 26 µg/mL with Maize (Zea mays) was determined as 60%. Further, the pest or weed control at 26 µg/mL in assay [1] was determined as 100%. For the same compound, the pest or weed control at 11200 g/ha with Peas (Pisum sativum) worked out at 20%. Moreover, the “Germination Score” value was 1 (20-34% inhibition) with Pythium ultimum (30 ppm) and 5 (65-74% inhibition) with Pythium ultimum (100 ppm).

The values are drawn from patent publication US4309559A, “Sulphonamides useful as pesticides” (FBC Limited, priority 1977, dated 1982).
